Results from patent US8183254B2, “Inhibitors of JNK” (Roche Palo Alto LLC, priority 2008, dated 2012).

What was measured:
Human JNK2α2 = Human JNK2α2 (Homo sapiens, UniProt P45984); assay: JNK assay in vitro (phosphorylation of GST-ATF2 with [γ-33P] ATP), JNK2; assay type: biochemical; details: Km concentrations of ATP and substrate
Experimental: (§1) JNK activity was measured by phosphorylation of GST-ATF2 (19-96) with [γ-^33P] ATP. […] Human JNK2α2 assay contains 1 nM enzyme, 1 μM ATF2, 8 μM ATP with 1 uCi [γ-^33P] ATP. Human JNK1α1 assay contains 2 nM enzyme, 1 μM ATF2, 6 μM ATP with 1 μCi [γ-^33P] ATP. Human JNK3 Upstate Biotech #14-501M) assay contains 2 nM enzyme, 1 μM ATF2, 4 μM ATP with 1 μCi [γ-^33P] ATP. The enzyme assay was carried out in the presence or absence of several compound concentrations. JNK and compound were pre-incubated for 10 min., followed by initiation of the enzymatic reaction by adding ATP and the substrate. The reaction mixture was incubated at 30° C. for 30 min. At the end of incubation, the reaction was terminated by transferring 25 μl of the reaction mixture to 150 μl of 10% glutathione Sepharose® slurry (Amersham # 27-4574-01) containing 135 mM EDTA. The reaction product was captured on the affinity resin, and washed on a filtration plate (Millipore, MABVNOB50) with phosphate buffered saline for six times to remove free radionucleotide. The incorporation of ^33P into ATF2 was quantified on a microplate scintillation counter (Packard Topcount). Compound inhibition potency on JNK was measured by IC50 value generated from ten concentration inhibition curves fitted into the 3-parameter model: % inhibition=Maximum/(1+(IC50/[Inhibitor])^slope). Data were analyzed on Microsoft Excel for parameter estimation.

Human JNK1α1 = Human JNK1α1 (Homo sapiens, UniProt P45983); assay: JNK assay in vitro (phosphorylation of GST-ATF2 with [γ-33P] ATP), JNK1; assay type: biochemical; details: Km concentrations of ATP and substrate
Experimental: as §1

[1] = tested on: TNFα-induced IL-6 production; assay: Rat in vivo TNFα-induced IL-6 production assay; details: oral gavage 30 min prior to TNF-α challenge, plasma IL-6 90 min after challenge, female Wistar-Han rats
Experimental: Female Wistar-Han rats procured from Charles River Laboratories were allowed to acclimate for one week prior to use and achieve an approximate body weight of 101-130 g. Rats were administered test compound (N=8 per compound) via oral gavage 30 min prior to an intraperitoneal challenge of 0.5 μg recombinant rat TNF-α (Biosource). Blood was collected via cardiocentesis 90 min after TNF-α challenge. Plasma was prepared using lithium heparin separation tubes (BD microtainer) and frozen at −80° C. until analyzed. IL-6 levels were determined using a rat specific IL-6 ELISA kit (Biosource). The percent inhibition and ED50 values (calculated as the dose of compound at which […] is 50% of the control value) were determined.

Sequence of Human JNK1α1 (P45983 1-384 isoform P45983-2): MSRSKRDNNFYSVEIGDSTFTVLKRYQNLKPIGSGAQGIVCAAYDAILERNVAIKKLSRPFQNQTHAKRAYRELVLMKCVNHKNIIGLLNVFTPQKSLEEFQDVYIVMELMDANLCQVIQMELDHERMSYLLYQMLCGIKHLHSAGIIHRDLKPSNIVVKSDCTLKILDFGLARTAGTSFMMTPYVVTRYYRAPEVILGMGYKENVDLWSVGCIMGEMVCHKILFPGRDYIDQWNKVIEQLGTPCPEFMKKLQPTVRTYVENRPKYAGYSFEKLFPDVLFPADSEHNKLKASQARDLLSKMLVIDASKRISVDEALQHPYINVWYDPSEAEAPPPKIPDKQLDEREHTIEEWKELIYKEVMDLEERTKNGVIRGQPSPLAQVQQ
Sequence of Human JNK2α2 (P45984 whole entry): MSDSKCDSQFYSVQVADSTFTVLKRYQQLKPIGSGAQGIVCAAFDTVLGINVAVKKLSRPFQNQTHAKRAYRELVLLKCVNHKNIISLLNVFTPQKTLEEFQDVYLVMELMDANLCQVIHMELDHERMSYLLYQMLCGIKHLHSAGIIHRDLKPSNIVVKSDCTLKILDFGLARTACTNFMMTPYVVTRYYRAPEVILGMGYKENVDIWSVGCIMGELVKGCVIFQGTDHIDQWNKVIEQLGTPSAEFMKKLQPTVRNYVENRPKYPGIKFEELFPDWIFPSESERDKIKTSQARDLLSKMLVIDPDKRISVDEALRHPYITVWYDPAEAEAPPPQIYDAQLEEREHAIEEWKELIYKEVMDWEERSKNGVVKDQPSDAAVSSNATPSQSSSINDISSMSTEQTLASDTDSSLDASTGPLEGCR

SMILES: CN[C@H](C(=O)OC1CCN(C(=O)[C@H]2CC[C@H](Nc3nccc(-n4ccc5c(OCCCS(C)(=O)=O)cccc54)n3)CC2)CC1)C(C)C (stereo in doubt) [Compound I-15, (R)-3-Methyl-2-methylamino-butyric acid 1-(4-{4-[4-(3-methanesulfonyl-propoxy)-indol-1-yl]-pyrimidin-2-ylamino}-cyclohexanecarbonyl)-piperidin-4-yl ester]
- melting point: 105 to 107 °C
- IC50 (Human JNK2α2): 40.5 nM
- IC50 (Human JNK1α1): 10 nM

SMILES: C[C@H](N)C(=O)OC1CCN(C(=O)[C@H]2CC[C@H](Nc3nccc(-n4ccc5c(OCCCS(C)(=O)=O)cccc54)n3)CC2)CC1 [Compound I-1]
- melting point: 202.2 to 203.2 °C
- IC50 (Human JNK2α2): 40.8 nM
- IC50 (Human JNK1α1): 9.4 nM

SMILES: CC(C)(N)C(=O)OC1CCN(C(=O)[C@H]2CC[C@H](Nc3nccc(-n4ccc5c(OCCCS(C)(=O)=O)cccc54)n3)CC2)CC1 [Compound I-2, 2-Amino-2-methyl-propionic acid 1-(4-{4-[4-(3-methanesulfonyl-propoxy)-indol-1-yl]-pyrimidin-2-ylamino}-cyclohexanecarbonyl)-piperidin-4-yl ester]
- melting point: 219 to 220 °C
- IC50 (Human JNK2α2): 34.7 nM
- IC50 (Human JNK1α1): 6.8 nM

SMILES: CC[C@H](C)[C@H](N)C(=O)OC1CCN(C(=O)[C@H]2CC[C@H](Nc3nccc(-n4ccc5c(OCCCS(C)(=O)=O)cccc54)n3)CC2)CC1 [Compound I-4, (2S,3S)-2-Amino-3-methyl-pentanoic acid 1-(4-{4-[4-(3-methanesulfonyl-propoxy)-indol-1-yl]-pyrimidin-2-ylamino}-cyclohexanecarbonyl)-piperidin-4-yl ester]
- melting point: 137 to 138 °C
- IC50 (Human JNK2α2): 51.9 nM
- IC50 (Human JNK1α1): 11.6 nM

SMILES: CS(=O)(=O)CCCOc1cccc2c1ccn2-c1ccnc(N[C@H]2CC[C@H](C(=O)N3CCC(OC(=O)[C@@H]4CCCN4)CC3)CC2)n1 [Compound I-5, (S)-Pyrrolidine-2-carboxylic acid 1-(4-{4-[4-(3-methanesulfonyl-propoxy)-indol-1-yl]-pyrimidin-2-ylamino}-cyclohexanecarbonyl)-piperidin-4-yl ester]
- melting point: 147 to 148 °C
- IC50 (Human JNK2α2): 27.4 nM
- IC50 (Human JNK1α1): 7.4 nM

SMILES: CC(C)[C@H](N)C(=O)OC1CCN(C(=O)[C@H]2CC[C@H](Nc3nccc(-n4ccc5c(OCCCS(C)(=O)=O)cccc54)n3)CC2)CC1 [Compound I-6, (S)-2-Amino-3-methyl-butyric acid 1-(4-{4-[4-(3-methanesulfonyl-propoxy)-indol-1-yl]-pyrimidin-2-ylamino}-cyclohexanecarbonyl)-piperidin-4-yl ester]
- melting point: 163 to 164 °C
- IC50 (Human JNK2α2): 40.2 nM
- IC50 (Human JNK1α1): 10.5 nM

SMILES: CN1CCC[C@@H]1C(=O)OC1CCN(C(=O)[C@H]2CC[C@H](Nc3nccc(-n4ccc5c(OCCCS(C)(=O)=O)cccc54)n3)CC2)CC1 [Compound I-7, (R)-1-Methyl-pyrrolidine-2-carboxylic acid 1-(4-{4-[4-(3-methanesulfonyl-propoxy)-indol-1-yl]-pyrimidin-2-ylamino}-cyclohexanecarbonyl)-piperidin-4-yl ester]
- melting point: 127 to 128 °C
- IC50 (Human JNK2α2): 55 nM
- IC50 (Human JNK1α1): 15 nM

SMILES: CN(C)CC(=O)OC1CCN(C(=O)[C@H]2CC[C@H](Nc3nccc(-n4ccc5c(OCCCS(C)(=O)=O)cccc54)n3)CC2)CC1 [Compound I-8, Dimethylamino-acid acid 1-(4-{4-[4-(3-methanesulfonyl-propoxy)-indol-1-yl]-pyrimidin-2-ylamino}-cyclohexanecarbonyl)-piperidin-4-yl ester]
- melting point: 177 to 178 °C
- IC50 (Human JNK2α2): 67.6 nM
- IC50 (Human JNK1α1): 23.8 nM
- IL-6 Inhibition ([1]; dose 10 mg/Kg): 28.9%
- IL-6 Inhibition ([1]; dose 30 mg/Kg): 40.2%

SMILES: CN[C@@H](C)C(=O)OC1CCN(C(=O)[C@H]2CC[C@H](Nc3nccc(-n4ccc5c(OCCCS(C)(=O)=O)cccc54)n3)CC2)CC1 [Compound I-9, (S)-2-methylamino-propionic acid 1-(4-{4-[4-(3-methanesulfonyl-propoxy)-indol-1-yl]-pyrimidin-2-ylamino}-cyclohexanecarbonyl)-piperidin-4-yl ester]
- melting point: 182 to 183 °C
- IC50 (Human JNK2α2): 50.9 nM
- IC50 (Human JNK1α1): 15.3 nM
- IL-6 Inhibition ([1]; dose 10 mg/Kg): 28.1%
- IL-6 Inhibition ([1]; dose 30 mg/Kg): 49.1%

SMILES: CC[C@H](C)[C@@H](N)C(=O)OC1CCN(C(=O)[C@H]2CC[C@H](Nc3nccc(-n4ccc5c(OCCCS(C)(=O)=O)cccc54)n3)CC2)CC1 [Compound I-10, (2R,3S)-2-Amino-3-methyl-pentanoic acid 1-(4-{4-[4-(3-methanesulfonyl-propoxy)-indol-1-yl]-pyrimidin-2-ylamino}-cyclohexanecarbonyl)-piperidin-4-yl ester]
- melting point: 150 to 200 °C

SMILES: CC[C@@H](C)[C@@H](N)C(=O)OC1CCN(C(=O)[C@H]2CC[C@H](Nc3nccc(-n4ccc5c(OCCCS(C)(=O)=O)cccc54)n3)CC2)CC1 [Compound I-11, (2R,3R)-2-Amino-3-methyl-pentanoic acid 1-(4-{4-[4-(3-methanesulfonyl-propoxy)-indol-1-yl]-pyrimidin-2-ylamino}-cyclohexanecarbonyl)-piperidin-4-yl ester]
- melting point: 147 to 148 °C
- IC50 (Human JNK2α2): 115 nM
- IC50 (Human JNK1α1): 34.7 nM

SMILES: COP(=O)(OC)OC1CCN(C(=O)[C@H]2CC[C@H](Nc3nccc(-n4ccc5c(OCCCS(C)(=O)=O)cccc54)n3)CC2)CC1 [Compound I-12, Phosphoric acid 1-(4-{4-[4-(3-methanesulfonyl-propoxy)-indol-1-yl]-pyrimidin-2-ylamino}-cyclohexanecarbonyl)-piperidin-4-yl ester dimethyl ester]
- melting point: 135 to 136 °C
- IC50 (Human JNK2α2): 162 nM
- IC50 (Human JNK1α1): 48.1 nM

SMILES: CS(=O)(=O)CCCOc1cccc2c1ccn2-c1ccnc(N[C@H]2CC[C@H](C(=O)N3CCC(OP(=O)(O)O)CC3)CC2)n1 [Compound I-13]
- melting point: 201.3 to 208.8 °C
- IC50 (Human JNK2α2): 56.8 nM
- IC50 (Human JNK1α1): 10.8 nM

SMILES: CS(=O)(=O)CCCOc1cccc2c1ccn2-c1ccnc(N[C@H]2CC[C@H](C(=O)N3CCC(OC(=O)CCC(=O)O)CC3)CC2)n1 [Compound I-14]
- melting point: 214.2 to 217.7 °C
- IC50 (Human JNK2α2): 67.9 nM
- IC50 (Human JNK1α1): 27.9 nM

SMILES: CN1CCC[C@H]1C(=O)OC1CCN(C(=O)[C@H]2CC[C@H](Nc3nccc(-n4ccc5c(OCCCS(C)(=O)=O)cccc54)n3)CC2)CC1 [Compound I-27, (S)-1-Methyl-pyrrolidine-2-carboxylic acid 1-(4-{4-[4-(3-methanesulfonyl-propoxy)-indol-1-yl]-pyrimidin-2-ylamino}-cyclohexanecarbonyl)-piperidin-4-yl ester]
- melting point: 127 to 128 °C
- IC50 (Human JNK2α2): 57.2 nM
- IC50 (Human JNK1α1): 17.6 nM
- IL-6 Inhibition ([1]; dose 10 mg/Kg): 35.8%
- IL-6 Inhibition ([1]; dose 30 mg/Kg): 50.7%
